Experimental data: PubChem BioAssay AID1919008 (Molecular Pharmacology Branch, DTP, NCI, 2023)

Test system: DMS-114 complex spheroids with HUVEC/MSC, growth % test/control
Assay: Anticancer human tumor DMS-114 cell line growth inhibition [AhR];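 note: spheroids exposed to agents for 7 days before readout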;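 for viability, T/C: 100% = DMSO vehicle control wells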
Settings: for IC50: curve of first compound; for viability, T/C: stronger effect = lower value
Summary of the method: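 Complex tumor spheroids co-cultured with HUVEC and human MSC stroma; AhR antagonists tested in combination with standard-of-care and investigational agents. Top concentration at or near clinical Cmax (else 10 microM), half-log dilutions; growth expressed as percent test/control.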

[1] = second compound 0.1 µM, first compound 0.00316 µM
[2] = second compound 0.1 µM, first compound 0.01 µM
[3] = second compound 0.1 µM, first compound 0.0316 µM
[4] = second compound 0.1 µM, first compound 0.1 µM
[5] = second compound 0.316 µM, first compound 0.00316 µM
[6] = second compound 0.316 µM, first compound 0.01 µM
[7] = second compound 0.316 µM, first compound 0.0316 µM
[8] = second compound 0.316 µM, first compound 0.1 µM
[9] = second compound 1 µM, first compound 0.00316 µM
[10] = second compound 1 µM, first compound 0.01 µM
[11] = second compound 1 µM, first compound 0.0316 µM
[12] = second compound 1 µM, first compound 0.1 µM
[13] = second compound 3.16 µM, first compound 0.00316 µM
[14] = second compound 3.16 µM, first compound 0.01 µM
[15] = second compound 3.16 µM, first compound 0.0316 µM
[16] = second compound 3.16 µM, first compound 0.1 µM
[17] = second compound 10 µM, first compound 0.00316 µM
[18] = second compound 10 µM, first compound 0.01 µM
[19] = second compound 10 µM, first compound 0.0316 µM
[20] = second compound 10 µM, first compound 0.1 µM
[21] = second compound 0.1 µM, first compound 0.316 µM
[22] = second compound 0.1 µM, first compound 1 µM
[23] = second compound 0.1 µM, first compound 3.16 µM
[24] = second compound 0.1 µM, first compound 10 µM
[25] = second compound 0.316 µM, first compound 0.316 µM
[26] = second compound 0.316 µM, first compound 1 µM
[27] = second compound 0.316 µM, first compound 3.16 µM
[28] = second compound 0.316 µM, first compound 10 µM
[29] = second compound 1 µM, first compound 0.316 µM
[30] = second compound 1 µM, first compound 1 µM
[31] = second compound 1 µM, first compound 3.16 µM
[32] = second compound 1 µM, first compound 10 µM
[33] = second compound 3.16 µM, first compound 0.316 µM
[34] = second compound 3.16 µM, first compound 1 µM
[35] = second compound 3.16 µM, first compound 3.16 µM
[36] = second compound 3.16 µM, first compound 10 µM
[37] = second compound 10 µM, first compound 0.316 µM
[38] = second compound 10 µM, first compound 1 µM
[39] = second compound 10 µM, first compound 3.16 µM
[40] = second compound 10 µM, first compound 10 µM

`CC[C@@]1(O)C(=O)OCc2c1cc1n(c2=O)Cc2cc3c(CN(C)C)c(O)ccc3nc2-1` + Cc1cncc(-c2nc(NCCc3c[nH]c4ccccc34)c3ncn(C(C)C)c3n2)c1 gave an IC50 (second compound 0.1 µM) of 23.6 nM, an IC50 (second compound 0.316 µM) of 23.2 nM and an IC50 (second compound 1 µM) of 25.9 nM. The IC50 (second compound 3.16 µM) was 21.9 nM, the IC50 (second compound 10 µM) was under 0.316 nM and the viability, T/C (second compound 0.1 µM, first compound 0.000316 µM) was 93.4%. For the same compound, the viability, T/C (second compound 0.1 µM, first compound 0.001 µM) was 99.2%, the viability, T/C [1] was 85.8% and the viability, T/C [2] was 75.6%. The viability, T/C [3] was 41.1%, the viability, T/C [4] was 16.7% and the viability, T/C (second compound 0.316 µM, first compound 0.000316 µM) was 93.4%. It also gave a viability, T/C (second compound 0.316 µM, first compound 0.001 µM) of 101%, a viability, T/C [5] of 83.8% and a viability, T/C [6] of 83.2%. It also gave a viability, T/C [7] of 37.8%, a viability, T/C [8] of 17% and a viability, T/C (second compound 1 µM, first compound 0.000316 µM) of 97.3%. The viability, T/C (second compound 1 µM, first compound 0.001 µM) was 112%, the viability, T/C [9] was 94.5% and the viability, T/C [10] was 86%. For the same compound, the viability, T/C [11] was 42.1%, the viability, T/C [12] was 19.5% and the viability, T/C (second compound 3.16 µM, first compound 0.000316 µM) was 99.7%. For the same compound, the viability, T/C (second compound 3.16 µM, first compound 0.001 µM) was 94%, the viability, T/C [13] was 96.1% and the viability, T/C [14] was 71.9%. The viability, T/C [15] was 39.8%, the viability, T/C [16] was 17.8% and the viability, T/C (second compound 10 µM, first compound 0.000316 µM) was 40.1%. It also gave a viability, T/C (second compound 10 µM, first compound 0.001 µM) of 43.7%, a viability, T/C [17] of 37.1% and a viability, T/C [18] of 27.2%. For the same compound, the viability, T/C [19] was 16.7% and the viability, T/C [20] was 9.82%.
`COc1cc(C2c3cc4c(cc3C(OC3OC5COC(C)OC5C(O)C3O)C3COC(=O)C23)OCO4)cc(OC)c1O` (stereo not given) + Cc1cncc(-c2nc(NCCc3c[nH]c4ccccc34)c3ncn(C(C)C)c3n2)c1 was tested, and the IC50 (second compound 0.1 µM) was 448 nM, the IC50 (second compound 0.316 µM) was 351 nM and the IC50 (second compound 1 µM) was 390 nM. The IC50 (second compound 3.16 µM) was 298 nM, the IC50 (second compound 10 µM) was under 31.6 nM and the viability, T/C [3] was 102%. The viability, T/C [4] was 97.8%, the viability, T/C [21] was 58.1% and the viability, T/C [22] was 27%. The viability, T/C [23] was 16.5%, the viability, T/C [24] was 8.1% and the viability, T/C [7] was 96.4%. The viability, T/C [8] was 96.3%, the viability, T/C [25] was 50.4% and the viability, T/C [26] was 24.9%. The viability, T/C [27] was 16.3%, the viability, T/C [28] was 9.46% and the viability, T/C [11] was 92.7%. It also gave a viability, T/C [12] of 94.6%, a viability, T/C [29] of 54.6% and a viability, T/C [30] of 23.5%. The viability, T/C [31] was 17.6%, the viability, T/C [32] was 9.48% and the viability, T/C [15] was 87.1%. For the same compound, the viability, T/C [16] was 93.3%, the viability, T/C [33] was 47.5% and the viability, T/C [34] was 21.9%. The viability, T/C [35] was 15.7%, the viability, T/C [36] was 8.67% and the viability, T/C [19] was 42.3%. The viability, T/C [20] was 41.6%, the viability, T/C [37] was 21.7% and the viability, T/C [38] was 10.2%. For the same compound, the viability, T/C [39] was 8.09% and the viability, T/C [40] was 5.18%.
Work on `Nc1ccn(C2OC(CO)C(O)C2(F)F)c(=O)n1` (stereo not given) + Cc1cncc(-c2nc(NCCc3c[nH]c4ccccc34)c3ncn(C(C)C)c3n2)c1 yielded an IC50 (second compound 0.1 µM) of under 31.6 nM, an IC50 (second compound 0.316 µM) of under 31.6 nM and an IC50 (second compound 1 µM) of under 31.6 nM. For the same compound, the IC50 (second compound 3.16 µM) was under 31.6 nM, the IC50 (second compound 10 µM) was under 31.6 nM and the viability, T/C [3] was 8.56%. It also gave a viability, T/C [4] of 9.8%, a viability, T/C [21] of 9.67% and a viability, T/C [22] of 7.95%. It also gave a viability, T/C [23] of 10.1%, a viability, T/C [24] of 8.44% and a viability, T/C [7] of 8.17%. It also gave a viability, T/C [8] of 8.73%, a viability, T/C [25] of 9.32% and a viability, T/C [26] of 9.26%. The viability, T/C [27] was 8.71%, the viability, T/C [28] was 9.3% and the viability, T/C [11] was 9.4%. For the same compound, the viability, T/C [12] was 10.1%, the viability, T/C [29] was 8.34% and the viability, T/C [30] was 9.34%. For the same compound, the viability, T/C [31] was 8.86%, the viability, T/C [32] was 9.03% and the viability, T/C [15] was 8.74%. For the same compound, the viability, T/C [16] was 10.6%, the viability, T/C [33] was 11.1% and the viability, T/C [34] was 8.92%. It also gave a viability, T/C [35] of 9.63%, a viability, T/C [36] of 8.89% and a viability, T/C [19] of 9.18%. It also gave a viability, T/C [20] of 7.73%, a viability, T/C [37] of 8.82% and a viability, T/C [38] of 7.58%. The viability, T/C [39] was 8.49% and the viability, T/C [40] was 9.08%.
Compound `Nc1ncn(C2CC(O)C(CO)O2)c(=O)n1` (stereo not given) + Cc1cncc(-c2nc(NCCc3c[nH]c4ccccc34)c3ncn(C(C)C)c3n2)c1 has an IC50 (second compound 0.1 µM) of over 1000 nM, an IC50 (second compound 0.316 µM) of over 1000 nM and an IC50 (second compound 1 µM) of over 1000 nM. The IC50 (second compound 3.16 µM) was over 1000 nM, the IC50 (second compound 10 µM) was under 3.16 nM and the viability, T/C [1] was 111%. It also gave a viability, T/C [2] of 88.5%, a viability, T/C [3] of 99.5% and a viability, T/C [4] of 101%. The viability, T/C [21] was 77%, the viability, T/C [22] was 54.8% and the viability, T/C [5] was 90.4%. It also gave a viability, T/C [6] of 93.1%, a viability, T/C [7] of 90.6% and a viability, T/C [8] of 88%. For the same compound, the viability, T/C [25] was 74.3%, the viability, T/C [26] was 52.3% and the viability, T/C [9] was 97.8%. For the same compound, the viability, T/C [10] was 91.7%, the viability, T/C [11] was 81.5% and the viability, T/C [12] was 94.3%. It also gave a viability, T/C [29] of 86.4%, a viability, T/C [30] of 62% and a viability, T/C [13] of 82.9%. The viability, T/C [14] was 86.5%, the viability, T/C [15] was 86.5% and the viability, T/C [16] was 81.7%. The viability, T/C [33] was 85.2%, the viability, T/C [34] was 68.8% and the viability, T/C [17] was 31.6%. It also gave a viability, T/C [18] of 36.9%, a viability, T/C [19] of 44.8% and a viability, T/C [20] of 45.5%. The viability, T/C [37] was 35.6% and the viability, T/C [38] was 37.1%.
